US12145931B2, “Substituted pyrrolo[2,3-c]quinolines as antimalarials” (COUNCIL OF SCIENTIFIC AND INDUSTRIAL RESEARCH, priority 2018, dated 2024)

Legend:
[1] = system: Plasmodium falciparum 3D7 strain; experiment: Anti-malarial screen, parasite growth by SybrGreen staining; format: cell-based; conditions: 60 hours incubation, triplicates; for inhibition at 10 µM / EC50: Plasmodium falciparum, 3D7; for EC50: serial dilution from 10 μM to 1 nM
Procedure: Plasmodium falciparum 3D7 strain from Malaria Research and Reference Reagent Resource Center (ID NO: MRA-102). Plasmodium falciparum (3D7) is cultured in the laboratory as per standard protocols [AzarRadfar, Darío Méndez, Carlos Moneriz, María Linares, Patricia Marín-García, Antonio Puyet, AmaliaDiez & José M Bautista. Synchronous culture of Plasmodium falciparum at high parasitemia levels Nature Protocols 2009, 4, 1899-1915]. When the parasitemia (i.e., percent infection of human RBCs) reaches >15%, 1 mL of culture suspension is layered over 10 mL of 60% percoll (pH and osmolality adjusted using PBS) and centrifuged at 3000 rpm for 5 min using a swing out rotor. This separates late stage parasite (trophozoite and schizont) infected RBC (as a band on top of the percoll cushion) from early stage parasite (ring) infected and uninfected RBCs (as pellet at the bottom of the percoll cushion). The >90% enriched late stage parasite infected RBCs are collected, washed with complete RPMI media and added to a 2% hematocrit RBC suspension such that the final parasitemia is around 2%. The parasites grow in a synchronous manner for at least 2 rounds of asexual cycle (48 hours). This culture is then used for anti-malarial screening as given below.
200 μL of ring stage parasite culture at ˜2% parasitemia (see above) is added to each well in a 96 well plate pre-seeded with the compound of interest at the required concentration. 1 mM and 10 mM stocks dilutions of the compounds are prepared in cell culture grade DMSO, and the final concentration used in the assay is either 10 μM (for identifying molecules affecting parasite growth) or a serial dilution from 10 μM to 1 nM (for estimating the dose response and EC50 value). All compounds are plated in triplicates as biological replicates. Each 96 well plate also includes negative control (compound untreated & DMSO only treated culture) and positive control (standard anti-malarial compounds treated culture). […] After plating, the culture is incubated in standard growth condition for 60 hours, after which the cultures are processed for testing the effect of compounds on parasite growth as given below.
The inventors have standardized a SybrGreen dye based staining protocol for estimating parasite growth, which is a modification of previously published protocol [Plouffe et. al, 2008]. SybrGreen dye binds to DNA and only the DNA bound dye gives a specific fluorescence emission ([…]) when excited ([…]). Since only the parasites have DNA (as human RBCs are devoid of nucleus), the SybrGreensignal is a direct indictor of parasite growth. A standard fluorescent plate reader issued for assay read out, and the staining is done as follows. 25 μL of 10× stock containing of dye and Triton X100 (0.5%) is added to each of 200 μL culture growing in a 96 well plate and mixed well and incubated for 15 min-30 min before reading fluorescence emission using the plate reader at the appropriate wavelength.

[2] = 10 μM compound, ring stage culture ~2% parasitemia

EC50 [1]	melting point	Compound	inhibition at 10 µM [1, 2]	Average % growth Inhibition [1, 2]
> 10 µM		O=Cc1nc2ccccc2c2ccn(S(=O)(=O)c3ccccc3)c12 [Compound of formula 3, 3-(phenylsulfonyl)-3H-Pyrrolo[2,3-c]quinoline-4-carbaldehyde]	88.3%	
0.27 µM		CCN(CC)Cc1nc2ccccc2c2ccn(S(=O)(=O)c3ccccc3)c12 [Ia, N-ethyl-N-((3-(phenylsulfonyl)-3H-pyrrolo [2,3-c]quinolin-4-yl)methyl)ethanamine]	99.7%	
8.58 µM		CCN(CC)Cc1nc2ccccc2c2cc[nH]c12 [Ib, N-((3H-pyrrolo[2,3-c]quinolin-4-yl)methyl)-N-ethylethanamine]	97%	
> 10 µM	98 to 99 °C	O=S(=O)(c1ccccc1)n1ccc2c3ccccc3nc(CN(CCO)CCO)c21 [Ic]	93.6%	
4.48 µM		OCCN(CCO)Cc1nc2ccccc2c2cc[nH]c12 [Id]	91.5%	
> 10 µM	146 to 148 °C	CN(Cc1nc2ccccc2c2ccn(S(=O)(=O)c3ccccc3)c12)c1ccccc1 [Ie, N-methyl-N-((3-(phenylsulfonyl)-3H-pyrrolo[2,3-c]quinolin-4-yl)methyl)aniline]	55.5%	
8.72 µM	139 to 141 °C	CN(Cc1nc2ccccc2c2cc[nH]c12)c1ccccc1 [If, N-((3H-pyrrolo[2,3-c]quinolin-4-yl)methyl)-N-methyl aniline]	89.9%	
7.86 µM	138 to 140 °C	O=S(=O)(c1ccccc1)n1ccc2c3ccccc3nc(CN3CCOCC3)c21 [Ig, 4-((3-(phenylsulfonyl)-3H-Pyrrolo[2,3-c]quinolin-4-yl)methyl)morpholine]	79.4%	
1.99 µM	148 to 150 °C	c1ccc2c(c1)nc(CN1CCOCC1)c1[nH]ccc12 [Ih, 4-((3H-pyrrolo[2,3-c]quinolin-4-yl)methyl)morpholine]	86.8%	
> 10 µM	188 to 190 °C	O=S(=O)(c1ccccc1)n1ccc2c3ccccc3nc(CN(Cc3nc4ccccc4c4ccn(S(=O)(=O)c5ccccc5)c34)c3ccccc3)c21 [Ii, N,N-bis((3-(phenylsulfonyl)-3H-pyrrolo[2,3-c]quinolin-4-yl)methyl)aniline]	88.3%	
> 10 µM	242 to 244 °C	c1ccc(N(Cc2nc3ccccc3c3cc[nH]c23)Cc2nc3ccccc3c3cc[nH]c23)cc1 [Ij, N,N-bis((3H-pyrrolo[2,3-c]quinolin-4-yl)methyl)aniline]	84.1%	
> 10 µM	48 to 50 °C	COc1ccc(N(C)Cc2nc3ccccc3c3ccn(S(=O)(=O)c4ccccc4)c23)cc1 [Ik, 4-methoxy-N-methyl-N-((3-(phenylsulfonyl)-3H-pyrrolo[2,3-c]quinolin-4-yl)methyl)aniline]	90.2%	
0.74 µM		COc1ccc(N(C)Cc2nc3ccccc3c3cc[nH]c23)cc1 [Il, N-((3H-pyrrolo[2,3-c]quinolin-4-yl)methyl)-4-methoxy-N-methylaniline]	94.1%	
0.17 µM		CCN(CC)CCCC(C)N(C)Cc1nc2ccccc2c2cc[nH]c12 (stereo not drawn) [Im, N^4-((3H-pyrrolo [2,3-c]quinolin-4-yl)methyl)-N^1,N^1-diethyl-N^4-methylpentane-1,4-diamine]	98.5%	
3.7 µM		Cc1nc2ccccc2c2[nH]ccc12 [In, 4-methyl-1H-pyrrolo[3,2-c]quinoline]	99.1%	
		O=c1c2ccccc2ncn1Cc1nc2ccccc2c2cc[nH]c12 [NCLite-M1, (3-((3H)-pyrrolo[2,3-c]quinoline-4-yl)methyl)quinazolin-4(3H)-one, reference compound]		9.18%
